Calls of active or inactive are those of the source. The calls are words filed in the database; no cut-off is given here.
Assays:
B-ALL [1] = test: Antiproliferative activity against mouse B-ALL cells expressing wild type BCR-ABL assessed as reduction in cell viability after 72 hrs by CellTiter-Glo assay; format: functional, cell-based
B-ALL [2] = test: Antiproliferative activity against mouse B-ALL BCR-ABL double knockout cells assessed as reduction in cell viability after 72 hrs by CellTiter-Glo assay; format: functional, cell-based
NALM-6 = test: Antiproliferative activity against human NALM6 assessed as reduction in cell viability after 72 hrs by CellTiter-Glo assay; format: functional, cell-based; conditions: NALM-6, 72 h
UoC-B1 = test: Antiproliferative activity against human UOCB1 assessed as reduction in cell viability after 72 hrs by CellTiter-Glo assay; format: functional, cell-based; conditions: UoC-B1, 72 h
KOPN-8 [3] = test: Antiproliferative activity against human KOPN8 assessed as reduction in cell viability after 72 hrs by CellTiter-Glo assay; format: functional, cell-based; conditions: KOPN-8, 72 h
SUP-B15 [4] = test: Antiproliferative activity against human SUP-B15 assessed as reduction in cell viability after 72 hrs by CellTiter-Glo assay; format: functional, cell-based; conditions: SUP-B15, 72 h
MV4-11 = test: Antiproliferative activity against human MV411 assessed as reduction in cell viability after 72 hrs by CellTiter-Glo assay; format: functional, cell-based; conditions: MV4-11, 72 h
K562 = test: Antiproliferative activity against human K562 assessed as reduction in cell viability after 72 hrs by CellTiter-Glo assay; format: functional, cell-based; conditions: K562, 72 h
[5] = Therapeutic index, ratio of EC50 for human BJ cells to EC50 for mouse B-ALL cells expressing wild type BCR-ABL; format: toxicity; conditions: human BJ cells versus mouse B-ALL cells expressing wild type BCR-ABL; read-out: Ratio EC50
BJ = test: Antiproliferative activity against human BJ assessed as cell viability after 72 hrs by CellTiter-Glo assay; format: functional, cell-based
[6] = Half life in mouse microsomes; format: ADME, Microsome
[7] = Intrinsic clearance in mouse microsomes; format: ADME, Microsome
[8] = Half life in human microsomes; format: ADME, Microsome
[9] = Intrinsic clearance in human microsomes; format: ADME, Microsome
[10] = Half life in simulated gastric fluid; format: ADME
[11] = Permeability of compound at pH 7.4 by PAMPA; format: ADME; conditions: read-out: Peff
[12] = Apparent permeability of compound form apical to basolateral side in human Caco2 cells; format: ADME, cell-based; conditions: Caco-2
[13] = Apparent permeability of compound form basolateral to apical side in human Caco2 cells; format: ADME, cell-based; conditions: Caco-2
[14] = Efflux ratio of apparent permeability across basolateral to apical side over apical to basolateral side in human Caco2 cells; format: ADME, cell-based; conditions: Caco-2
[15] = Protein binding in mouse plasma; format: ADME, cell-free; conditions: read-out: PPB (converted)
[16] = Protein binding in human plasma; format: ADME, cell-free; conditions: read-out: PPB (converted)
[17] = Half life in mouse plasma; format: ADME, cell-free
[18] = Half life in human plasma; format: ADME, cell-free
SUP-B15 [19] = test: Induction of apoptosis in human SUP-B15 cells assessed as increase in caspase 3/7 activity after 24 hrs by caspase-Glo 3/7 reagent based luminescence assay; format: functional, cell-based
SUP-B15 [20] = test: Induction of apoptosis in human SUP-B15 cells assessed as decrease in cell viability at […] after 24 hrs by ApoTox-Glo triplex assay; format: functional, cell-based
SUM149PT = test: Cytotoxicity against human SUM149 cells at 100 uM after 24 hrs by propidium iodide staining-based fluorescence assay relative to control; format: functional
MDA-MB-231 [21] = test: Cytotoxicity against human MDA-MB-231 cells up to 30 uM after 24 hrs by propidium iodide staining-based fluorescence assay; format: functional, cell-based
KOPN-8 [22] = test: Induction of apoptosis in human KOPN8 cells assessed as decrease in cell viability at 5 uM after 24 hrs by Annexin V/propidium iodide staining-based flow cytometric analysis; format: functional
SUP-B15 [23] = test: Induction of apoptosis in human SUP-B15 cells assessed as decrease in cell viability at 5 uM after 24 hrs by Annexin V/propidium iodide staining-based flow cytometric analysis; format: functional
KOPN-8 [24] = test: Cell cycle arrest in human KOPN8 cells assessed as accumulation of cells at G2/M phase at 5 uM after 24 hrs by propidium iodide staining-based flow cytometric analysis relative to control; format: functional
KOPN-8 [25] = test: Cell cycle arrest in human KOPN8 cells assessed as accumulation of cells at G1/G0 phase at 5 uM after 24 hrs by propidium iodide staining-based flow cytometric analysis relative to control; format: functional
SUP-B15 [26] = test: Cell cycle arrest in human SUP-B15 cells assessed as accumulation of cells at G2/M phase at 5 uM after 24 hrs by propidium iodide staining-based flow cytometric analysis; format: functional
SUP-B15 [27] = test: Cell cycle arrest in human SUP-B15 cells assessed as accumulation of cells at G1/G0 phase at 5 uM after 24 hrs by propidium iodide staining-based flow cytometric analysis; format: functional
KOPN-8 [28] = test: Cell cycle arrest in human KOPN8 cells assessed as increase in accumulation of cells at S phase at 5 uM after 24 hrs by propidium iodide staining-based flow cytometric analysis; format: functional
[29] = Permeability of compound at pH 7.4 assessed as drug retention by PAMPA; format: ADME
SUP-B15 [30] = test: Cytotoxicity in human SUP-B15 cells assessed as decrease in cell viability after 24 hrs by bis-AAF-RF110 dye based assay; format: functional
B-ALL [31] = test: Induction of apoptosis in mouse B-ALL BCR-ABL double knockout cells assessed as increase in caspase 3/7 activity after 24 hrs by caspase-Glo 3/7 reagent based luminescence assay; format: functional, cell-based
MDA-MB-231 [32] = test: Cytotoxicity against human MDA-MB-231 cells at 30 uM after 24 hrs by propidium iodide staining-based fluorescence assay; format: functional, cell-based
SUP-B15 [33] = test: Induction of apoptosis in human SUP-B15 cells assessed as late apoptotic cells level after 24 hrs by Annexin V and propidium iodide staining based flow cytometry (reference value: 83%); format: functional
SUP-B15 [34] = test: Induction of apoptosis in human SUP-B15 cells assessed as late apoptotic cells level after 24 hrs by Annexin V and propidium iodide staining based flow cytometry (reference value: 13.5%); format: functional
KOPN-8 [35] = test: Induction of apoptosis in human KOPN8 cells assessed as late apoptotic cells level after 24 hrs by Annexin V and propidium iodide staining based flow cytometry (reference value: 96.4%); format: functional
KOPN-8 [36] = test: Induction of apoptosis in human KOPN8 cells assessed as late apoptotic cells level after 24 hrs by Annexin V and propidium iodide staining based flow cytometry (reference value: 2%); format: functional
SUP-B15 [37] = test: Induction of apoptosis in human SUP-B15 cells assessed as late apoptotic cells level at 2 uM after 24 hrs by Annexin V and propidium iodide staining based flow cytometry (reference value: 83%); format: functional
SUP-B15 [38] = test: Induction of apoptosis in human SUP-B15 cells assessed as late apoptotic cells level at 2 uM after 24 hrs by Annexin V and propidium iodide staining based flow cytometry (reference value: 13.5%); format: functional
KOPN-8 [39] = test: Induction of apoptosis in human KOPN8 cells assessed as late apoptotic cells level at 2 uM after 24 hrs by Annexin V and propidium iodide staining based flow cytometry (reference value: 96.4%); format: functional
KOPN-8 [40] = test: Induction of apoptosis in human KOPN8 cells assessed as late apoptotic cells level at 2 uM after 24 hrs by Annexin V and propidium iodide staining based flow cytometry (reference value: 2%); format: functional

Cc1ccc(S(=O)(=O)Cc2nc(-c3ccc(C(=O)NCc4cccnc4)cc3)oc2C)cc1
EC50 (B-ALL [1]): 72 nM | EC50 (B-ALL [2]): 61 nM | EC50 (NALM-6): 26 nM | EC50 (UoC-B1): > 55000 nM | EC50 (KOPN-8 [3]): 1230 nM | EC50 (SUP-B15 [4]): 1100 nM | EC50 (MV4-11): 3800 nM | EC50 (K562): 4600 nM | selectivity ratio [5]: 34 | EC50 (BJ): 2490 nM | half-life [6]: 1.2 h | CLint scaled [7]: 47.5 mL/min/kg | half-life [8]: 1.44 h | CLint scaled [9]: 14.5 mL/min/kg | half-life [10]: > 48 h | Papp [11]: 617 ×10⁻⁶ cm/s | Papp A→B [12]: 10.6 ×10⁻⁶ cm/s | Papp B→A [13]: 37.2 ×10⁻⁶ cm/s | efflux ratio [14]: 3.5 | fraction unbound [15]: 0.023 | fraction unbound [16]: 0.042 | half-life [17]: > 48 h | half-life [18]: > 48 h | Activity (SUP-B15 [19]): Active | Activity (SUP-B15 [20]): Active | Activity (SUM149PT): 50% | Activity (MDA-MB-231 [21]): inactive | Activity (KOPN-8 [22]): Active | Activity (SUP-B15 [23]): Active | Activity (KOPN-8 [24]): 12% | Activity (KOPN-8 [25]): 10% | Activity (SUP-B15 [26]): inactive | Activity (SUP-B15 [27]): inactive | Activity (KOPN-8 [28]): Active | permeability [29]: 24.8% | Activity (SUP-B15 [30]): Active | Activity (B-ALL [31]): inactive | Activity (MDA-MB-231 [32]): Active | Activity (SUP-B15 [33]): 69.9% | Activity (SUP-B15 [34]): 7.6% | Activity (KOPN-8 [35]): 95.8% | Activity (KOPN-8 [36]): 2.9%

CN[C@@H]1C[C@H]2O[C@@](C)([C@@H]1OC)n1c3ccccc3c3c4c(c5c6ccccc6n2c5c31)C(=O)NC4 [STAUROSPORINE]
Activity (SUP-B15 [37]): 10% | Activity (SUP-B15 [38]): 52.3% | Activity (KOPN-8 [39]): 53.2% | Activity (KOPN-8 [40]): 45.2%
